According to ChEMBL document CHEMBL1142426, “Design and synthesis of macrocyclic peptidyl hydroxamates as peptide deformylase inhibitors” (2008):
pKi: −log10 of the molar value. ≈ marks a conversion by molar mass, not a printed value. Calls of active or inactive are those of the source. No cut-off for these calls is given here.

Tests used:
[1] = tested on: Escherichia coli; experiment: Antimicrobial activity against Escherichia coli; format: functional
[2] = target: T1, Peptide deformylase (Escherichia coli) (UniProt Q9JN24); experiment: Slow-binding inhibition of cobalt-substituted Escherichia coli PDF
T1 sequence (whole entry): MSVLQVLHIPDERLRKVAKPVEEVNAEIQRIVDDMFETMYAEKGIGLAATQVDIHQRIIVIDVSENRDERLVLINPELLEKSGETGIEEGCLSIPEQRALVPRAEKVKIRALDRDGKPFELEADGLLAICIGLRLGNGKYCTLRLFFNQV

[3] = target: T1, Peptide deformylase (Escherichia coli); experiment: Inhibition of cobalt-substituted Escherichia coli PDF
[4] = tested on: Bacillus subtilis; experiment: Antimicrobial activity against Bacillus subtilis; format: functional

Structure (SMILES) | MIC [1] [µg/mL] | pKi [2] | pKi [3] | MIC [4] [µg/mL] | Activity [1]
CC(C)(C)[C@@H]1NC(=O)[C@@H](CC(=O)NO)CCCCCCCCCNC1=O | > 24 | 8.36 | 6.68 | 2 (≈ 5.41 µM) | –
CC(C)(C)[C@@H]1NC(=O)[C@@H](CC(=O)NO)NC(=O)CCCCCCCCCNC1=O | – | – | < 4.70 | – | –
CC(C)(C)[C@@H]1NC(=O)[C@@H](CN(O)C=O)CCCCCCCCCNC1=O | – | 9.48 | 6.96 | – | –
O=C(C[C@H]1CCCCCCCCCNC(=O)[C@@H]2CCCN2C1=O)NO | – | 5.85 | 4.80 | > 24 | inactive
